Measurements: publication PMC3692398 (Biochemical pharmacology, 2013)
Where two headings read alike, the source gives them in different places.

Assays:
[1] = molecular target: T1, hSERT (Homo sapiens, UniProt P31645); experiment: Inhibition of [125I]RTI-55 binding, HEK-hSERT membranes
[2] = molecular target: T2, hNET (Homo sapiens, UniProt P23975); experiment: biochemical; assay type: binding
[3] = molecular target: T1, hSERT; experiment: Inhibition of [3H]5-HT uptake, intact HEK-hSERT cells; assay type: cell-based
[4] = molecular target: T2, hNET; experiment: cell-based; assay type: cell-based
[5] = molecular target: human DA D2 receptor (Homo sapiens, UniProt P14416); assay type: binding
[6] = molecular target: T3, h5-HT2A receptor (Homo sapiens, UniProt P28223); conditions: data not shown
[7] = molecular target: T4, hDAT (Homo sapiens, UniProt Q01959); experiment: Inhibition of [125I]RTI-55 binding, HEK-hDAT membranes
[8] = molecular target: T4, hDAT; experiment: Inhibition of [3H]DA uptake, intact HEK-hDAT cells; assay type: cell-based
[9] = molecular target: T4, hDAT; experiment: Superfusion release of preloaded [3H]DA from HEK-hDAT cells; assay type: cell-based; conditions: for time of peak/maximal [3H]DA release after addition of drug: 4-FMC 10 µM to 300 µM, mephedrone 30 µM, methylone 100 µM
[10] = molecular target: T1, hSERT; experiment: Superfusion release of preloaded [3H]5-HT from HEK-hSERT cells; assay type: cell-based
[11] = molecular target: T2, hNET; experiment: Superfusion release of preloaded [3H]NE from HEK-hNET cells; assay type: cell-based; conditions: for % maximum release ± sem, hNET [3H]NE: relative to maximal AUC induced by METH (0.3 or 1 µM)
[12] = molecular target: T5, hVMAT2 (Homo sapiens, UniProt Q05940); experiment: Inhibition of [3H]DHTB binding, HEK-hVMAT2 membranes
[13] = molecular target: T5, hVMAT2; experiment: Inhibition of [3H]5-HT uptake, HEK-hVMAT2 membrane preparation; assay type: biochemical
[14] = molecular target: T5, hVMAT2; experiment: Superfusion release of preloaded [3H]NE from HEK-hVMAT2 cells; assay type: cell-based
[15] = molecular target: T6, h5-HT1A receptor (Homo sapiens, UniProt P08908); experiment: [3H]8-OH-DPAT binding, HEK-h5-HT1A
T6 sequence (P08908 1-422): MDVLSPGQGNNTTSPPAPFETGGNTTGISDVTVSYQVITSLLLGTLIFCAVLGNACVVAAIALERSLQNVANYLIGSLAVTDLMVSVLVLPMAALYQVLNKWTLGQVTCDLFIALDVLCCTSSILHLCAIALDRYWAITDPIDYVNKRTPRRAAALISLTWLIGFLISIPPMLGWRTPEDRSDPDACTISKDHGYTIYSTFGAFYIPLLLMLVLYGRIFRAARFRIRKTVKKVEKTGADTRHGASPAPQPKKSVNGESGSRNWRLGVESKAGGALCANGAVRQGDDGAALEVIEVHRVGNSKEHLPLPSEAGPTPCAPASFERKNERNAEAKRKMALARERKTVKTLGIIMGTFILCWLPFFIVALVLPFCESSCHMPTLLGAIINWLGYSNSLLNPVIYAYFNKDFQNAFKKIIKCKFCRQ

[16] = molecular target: T3, h5-HT2A receptor; experiment: [125I]DOI binding, HEK-h5-HT2A
[17] = molecular target: T7, h5-HT2C receptor (Homo sapiens, UniProt P28335); experiment: biochemical; assay type: binding
T7 sequence (P28335 33-458): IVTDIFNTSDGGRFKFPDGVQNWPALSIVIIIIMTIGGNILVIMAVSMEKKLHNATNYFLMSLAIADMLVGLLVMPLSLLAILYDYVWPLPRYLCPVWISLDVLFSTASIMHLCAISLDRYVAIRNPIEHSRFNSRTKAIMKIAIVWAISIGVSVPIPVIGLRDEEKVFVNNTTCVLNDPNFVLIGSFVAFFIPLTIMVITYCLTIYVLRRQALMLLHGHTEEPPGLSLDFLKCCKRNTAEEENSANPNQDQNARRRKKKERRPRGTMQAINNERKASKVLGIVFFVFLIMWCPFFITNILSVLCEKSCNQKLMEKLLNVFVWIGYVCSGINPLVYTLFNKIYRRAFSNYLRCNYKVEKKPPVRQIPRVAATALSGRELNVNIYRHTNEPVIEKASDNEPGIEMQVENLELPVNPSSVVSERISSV

[18] = molecular target: T6, h5-HT1A receptor; experiment: Stimulation of [35S]GTPγS binding, HEK-h5-HT1A membranes; assay type: biochemical; conditions: for Emax: read-out: h5-HT1A Stimulation of [35S]GTPγS binding % maximum stimulation ± sem
[19] = molecular target: T3, h5-HT2A receptor; experiment: Inhibition of 5-HT-stimulated IP-1 formation; assay type: cell-based; conditions: for h5-HT2A Inhibition of 5-HT-stimulated IP-1 formation % maximum inhibition ± sem: 100 nM 5-HT, normalized to maximal inhibition by ketanserin (10 µM)
[20] = molecular target: T7, h5-HT2C receptor; experiment: Inhibition of 5-HT-stimulated IP-1 formation; assay type: cell-based; conditions: for h5-HT2C Inhibition of 5-HT-stimulated IP-1 formation % maximum inhibition ± sem: 100 nM 5-HT, normalized to maximal inhibition by SB242084 (1 µM)
[21] = molecular target: hSigma1 receptor (Homo sapiens, UniProt Q99720); experiment: [3H]; assay type: binding; conditions: Inhibition of [3H]pentazocine binding Ki ± sem, hSigma1
[22] = blood from heart, periphery, and femoral veins; postmortem cases; ref [32];[33];[34]; cited from earlier work

T3 sequence (P28223 whole entry): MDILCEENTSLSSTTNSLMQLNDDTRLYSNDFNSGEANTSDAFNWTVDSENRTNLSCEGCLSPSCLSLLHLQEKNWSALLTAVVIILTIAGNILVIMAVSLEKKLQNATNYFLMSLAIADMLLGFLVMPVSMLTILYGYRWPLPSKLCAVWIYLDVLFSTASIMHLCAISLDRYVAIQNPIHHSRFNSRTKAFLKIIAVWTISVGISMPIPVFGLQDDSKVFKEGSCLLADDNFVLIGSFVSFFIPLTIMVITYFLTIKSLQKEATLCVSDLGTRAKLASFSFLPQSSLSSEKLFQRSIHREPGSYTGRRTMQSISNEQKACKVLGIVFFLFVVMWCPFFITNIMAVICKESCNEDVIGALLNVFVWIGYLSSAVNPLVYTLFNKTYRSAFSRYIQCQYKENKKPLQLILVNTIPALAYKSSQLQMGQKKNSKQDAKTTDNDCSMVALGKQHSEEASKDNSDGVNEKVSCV
T4 sequence (Q01959 whole entry): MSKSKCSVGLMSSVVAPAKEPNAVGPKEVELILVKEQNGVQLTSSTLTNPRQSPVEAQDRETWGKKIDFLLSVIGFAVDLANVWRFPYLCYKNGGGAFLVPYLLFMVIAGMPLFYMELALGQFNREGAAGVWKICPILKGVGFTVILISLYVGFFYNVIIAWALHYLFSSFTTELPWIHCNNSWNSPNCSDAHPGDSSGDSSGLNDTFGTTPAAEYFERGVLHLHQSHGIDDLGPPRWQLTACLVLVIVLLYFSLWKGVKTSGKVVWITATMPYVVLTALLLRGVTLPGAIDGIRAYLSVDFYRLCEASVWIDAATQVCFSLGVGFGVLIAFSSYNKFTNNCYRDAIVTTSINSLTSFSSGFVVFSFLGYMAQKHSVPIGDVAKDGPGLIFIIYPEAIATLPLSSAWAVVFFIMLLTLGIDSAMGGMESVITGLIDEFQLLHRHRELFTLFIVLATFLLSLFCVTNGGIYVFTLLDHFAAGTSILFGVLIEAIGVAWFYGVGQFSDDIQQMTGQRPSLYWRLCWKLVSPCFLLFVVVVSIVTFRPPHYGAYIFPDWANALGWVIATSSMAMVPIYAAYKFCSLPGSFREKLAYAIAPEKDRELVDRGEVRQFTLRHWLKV
T1 sequence (P31645 whole entry): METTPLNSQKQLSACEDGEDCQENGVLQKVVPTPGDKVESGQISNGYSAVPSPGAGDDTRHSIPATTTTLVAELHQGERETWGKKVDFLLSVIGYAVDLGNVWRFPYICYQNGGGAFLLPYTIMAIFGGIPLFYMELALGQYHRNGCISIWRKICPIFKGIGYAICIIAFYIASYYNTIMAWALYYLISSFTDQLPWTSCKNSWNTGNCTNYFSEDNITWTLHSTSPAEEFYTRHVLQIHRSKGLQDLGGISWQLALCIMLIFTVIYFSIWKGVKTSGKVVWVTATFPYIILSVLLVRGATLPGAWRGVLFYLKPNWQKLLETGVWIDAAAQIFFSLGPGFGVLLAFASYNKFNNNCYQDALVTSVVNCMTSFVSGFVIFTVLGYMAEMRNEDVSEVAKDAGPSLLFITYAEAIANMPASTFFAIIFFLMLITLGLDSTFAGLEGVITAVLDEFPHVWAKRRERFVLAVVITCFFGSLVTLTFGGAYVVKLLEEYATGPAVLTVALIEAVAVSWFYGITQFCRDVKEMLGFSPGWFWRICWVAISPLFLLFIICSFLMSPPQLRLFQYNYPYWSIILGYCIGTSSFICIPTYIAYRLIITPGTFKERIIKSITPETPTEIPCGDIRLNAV
T2 sequence (P23975 whole entry): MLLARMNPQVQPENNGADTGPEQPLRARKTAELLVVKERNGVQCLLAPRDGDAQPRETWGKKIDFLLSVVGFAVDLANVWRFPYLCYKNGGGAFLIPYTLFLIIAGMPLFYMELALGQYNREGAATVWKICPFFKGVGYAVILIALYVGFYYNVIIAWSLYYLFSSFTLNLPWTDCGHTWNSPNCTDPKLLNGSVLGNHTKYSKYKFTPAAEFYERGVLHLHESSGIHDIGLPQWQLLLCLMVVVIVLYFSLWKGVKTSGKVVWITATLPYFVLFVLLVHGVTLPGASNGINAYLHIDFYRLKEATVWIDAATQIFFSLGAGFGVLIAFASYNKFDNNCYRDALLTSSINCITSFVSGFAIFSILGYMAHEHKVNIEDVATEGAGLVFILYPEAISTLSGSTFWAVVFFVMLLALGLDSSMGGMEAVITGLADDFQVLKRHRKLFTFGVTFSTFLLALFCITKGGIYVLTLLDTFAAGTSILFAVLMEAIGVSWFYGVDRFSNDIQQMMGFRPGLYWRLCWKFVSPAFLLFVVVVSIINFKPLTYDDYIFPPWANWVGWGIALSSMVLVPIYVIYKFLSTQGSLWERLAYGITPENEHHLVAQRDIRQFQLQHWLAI
T5 sequence (Q05940 whole entry): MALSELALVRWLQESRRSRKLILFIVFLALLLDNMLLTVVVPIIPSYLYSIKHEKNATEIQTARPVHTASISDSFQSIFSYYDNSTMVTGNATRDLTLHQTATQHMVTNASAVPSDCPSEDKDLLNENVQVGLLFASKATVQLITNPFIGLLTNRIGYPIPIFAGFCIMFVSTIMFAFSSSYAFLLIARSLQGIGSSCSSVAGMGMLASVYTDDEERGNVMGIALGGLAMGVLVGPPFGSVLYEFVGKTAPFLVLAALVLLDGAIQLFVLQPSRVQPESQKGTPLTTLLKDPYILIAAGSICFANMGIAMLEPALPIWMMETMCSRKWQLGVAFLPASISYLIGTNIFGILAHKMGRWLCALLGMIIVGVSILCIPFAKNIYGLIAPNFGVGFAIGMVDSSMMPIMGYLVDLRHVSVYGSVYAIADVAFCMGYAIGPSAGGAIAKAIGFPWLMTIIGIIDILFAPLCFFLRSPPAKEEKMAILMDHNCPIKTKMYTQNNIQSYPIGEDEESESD
hSigma1 receptor, sequence (Q99720 whole entry): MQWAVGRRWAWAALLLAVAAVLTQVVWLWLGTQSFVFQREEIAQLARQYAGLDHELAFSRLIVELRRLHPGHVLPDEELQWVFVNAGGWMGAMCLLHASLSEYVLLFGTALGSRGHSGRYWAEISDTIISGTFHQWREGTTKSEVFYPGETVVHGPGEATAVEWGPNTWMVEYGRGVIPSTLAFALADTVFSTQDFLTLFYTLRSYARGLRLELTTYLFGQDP
human DA D2 receptor, sequence (P14416 whole entry): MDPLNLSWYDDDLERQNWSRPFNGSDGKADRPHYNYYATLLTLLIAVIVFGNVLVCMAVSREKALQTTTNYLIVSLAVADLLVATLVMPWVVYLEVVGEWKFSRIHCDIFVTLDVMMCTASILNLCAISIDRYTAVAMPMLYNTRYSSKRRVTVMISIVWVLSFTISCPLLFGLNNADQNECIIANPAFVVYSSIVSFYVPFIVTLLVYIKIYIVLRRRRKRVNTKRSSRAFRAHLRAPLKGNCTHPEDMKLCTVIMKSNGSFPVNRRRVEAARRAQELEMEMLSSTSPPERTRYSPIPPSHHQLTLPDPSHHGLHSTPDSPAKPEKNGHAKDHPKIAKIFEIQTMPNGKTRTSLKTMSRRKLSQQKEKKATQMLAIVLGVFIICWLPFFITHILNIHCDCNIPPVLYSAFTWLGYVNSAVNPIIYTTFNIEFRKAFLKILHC

| Structure (SMILES) | Ki [1] [µM] | Ki [2] [µM] | IC50 [3] [µM] | IC50 [4] [µM] | h5-HT2A agonist activity, inositol monophosphate [6] | Ki [7] [µM] | IC50 [8] [µM] | % maximum release ± sem, hDAT [3H]DA [9] [%] | EC50 [9] [µM] | time of peak/maximal [3H]DA release after addition of drug [9] [min] | % maximum release ± sem, hSERT [3H]5-HT [10] [%] | EC50 [10] [µM] | time of peak [3H]5-HT release after addition of drug [10] | EC50 [11] [µM] | time of peak [3H]NE release after addition of drug [11] [min] | % maximum release ± sem, hNET [3H]NE [11] [%] | Ki [12] [µM] | IC50 [13] [µM] | EC50 [14] [µM] | Release of [3H]NE % maximum release ± sem or range, hVMAT2 [14] [%] | further results |
| --- | --- | --- | --- | --- | --- | --- | --- | --- | --- | --- | --- | --- | --- | --- | --- | --- | --- | --- | --- | --- | --- |
| OC1(c2ccc(Cl)cc2)c2ccccc2C2=NCCN21 (stereo not shown) [Mazindol, reference compound] | 0.026 ± 0.012 | 0.0054 ± 0.0016 | 0.0307 ± 0.0055 | 0.00185 ± 0.00049 |  |  |  |  |  |  |  |  |  |  |  |  |  |  |  |  |  |
| CC(C)(C)[C@]1(O)CCN2C[C@H]3c4ccccc4CCc4cccc(c43)[C@@H]2C1 [butaclamol] |  |  |  |  |  |  |  |  |  |  |  |  |  |  |  |  |  |  |  |  | affinity for the [3H]YM-09151-2 binding site, DA D2 receptor [5]: subnanomolar |
| NCCc1c[nH]c2ccc(O)cc12 [5-HT, 5-hydroxy-tryptamine] |  |  |  |  | full agonists with potencies in the low nanomolar range |  |  |  |  |  |  |  |  |  |  |  |  |  |  |  |  |
| CNC(C)C(=O)c1ccc2c(c1)OCO2 (stereo not shown) [Methylone, 3,4-methylenedioxy-N-methylcathinone] | 95.5 ± 4.3 | 16.5 ± 4.9 | 1.92 ± 0.35 | 0.234 ± 0.055 |  | 5.02 ± 0.29 | 0.343 ± 0.024 | 41 ± 12 | 11.8 ± 5.6 | ≤ 6 | 78 ± 18 | 6.7 ± 2.78 | about 6 min | 0.426 ± 0.067 | 8 to 16 | 122 ± 32 | > 1000 | > 100 | > 100 | 21.8 ± 8.5 | ratio of binding Ki to uptake IC50, hDAT ([8]; [125I]RTI-55 Ki / [3H]DA uptake IC50): 15; ratio of binding Ki to uptake IC50, hSERT ([3]; [125I]RTI-55 Ki / [3H]5-HT uptake IC50): 50; ratio of binding Ki to uptake IC50, hNET ([4]; [125I]RTI-55 Ki / [3H]NE uptake IC50): 71; fold less potent than METH to induce [3H]DA release ([9]; EC50 compared to METH): 30 fold; % maximum release ± sem, hDAT [3H]DA ([9]; listed as methylone): 41%; Release of [3H]NE % maximum release ± sem or range, hVMAT2 ([14]; listed as methylone): less than 35%; Ki [15]: 63.3 ± 0.98 µM; Ki [16]: 48.5 ± 8 µM; Ki [17]: 10.6 ± 1.8 µM; EC50 [18]: 143 ± 32 µM; Emax [18]: 47%; IC50 [19]: 159 ± 11 µM; h5-HT2A Inhibition of 5-HT-stimulated IP-1 formation % maximum inhibition ± sem [19]: 84.7 ± 5.2%; IC50 [20]: > 1000 µM; h5-HT2C Inhibition of 5-HT-stimulated IP-1 formation % maximum inhibition ± sem [20]: 28.0 ± 7.5%; Ki [21]: 25.5 ± 7.7 µM; postmortem blood concentration [22]: 0.06 to 3.3 mg/L; postmortem blood concentration (molar) [22]: 0.25 to 14 µM |
| CCN(CC)C(=O)[C@@H]1C=C2c3cccc4[nH]cc(c34)C[C@H]2N(C)C1 [LSD, lysergic acid diethylamide] |  |  |  |  | full agonists with potencies in the low nanomolar range |  |  |  |  |  |  |  |  |  |  |  |  |  |  |  |  |
| CNC(C)C(=O)c1ccc(C)cc1 (stereo not shown) [Mephedrone, 4-methyl-N-methylcathinone] | 21 ± 4.8 | 11.8 ± 4 | 0.51 ± 0.15 | 0.0536 ± 0.0087 |  | 4.8 ± 0.75 | 0.098 ± 0.027 | 68 ± 11 | 1.19 ± 0.34 | 8 | 53 ± 13 | 11.9 ± 4.9 | about 6 min | 0.41 ± 0.13 | 8 to 16 | 152 ± 32 | > 1000 | 116 ± 8.8 | 66 ± 23 | 33.1 ± 1.9 | Ki [15]: > 91 µM; Ki [17]: 9.1 ± 2.1 µM; EC50 [18]: 126 ± 29 µM; Emax [18]: 44%; h5-HT2A Inhibition of 5-HT-stimulated IP-1 formation % maximum inhibition ± sem [19]: 98.7 ± 1.3%; IC50 [20]: > 440 µM; h5-HT2C Inhibition of 5-HT-stimulated IP-1 formation % maximum inhibition ± sem [20]: 66.3 ± 8.4%; Ki [21]: 7.8 ± 2 µM; postmortem blood concentration [22]: 0.06 to 3.3 mg/L; postmortem blood concentration (molar) [22]: 0.25 to 14 µM |
